Columns and labels:
bamyardgrass = test: Test B flood test barnyardgrass; type: in vivo, Echinochloa crus-galli
Method in brief: (§1)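 Each value is a visual injury score relative to controls, with 10 meaning complete control and 0 no effect. Evaluation took place twelve to sixteen days after the 2-leaf-stage plants were treated and kept in the greenhouse.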

smallflower flatsedge = test: Test B flood test smallflower flatsedge; type: in vivo, Cyperus difformis
Method in brief: as §1

duck salad = test: Test B flood test duck salad; type: in vivo, Heteranthera limosa
Method in brief: as §1

rice = test: Test B flood test rice; type: in vivo, Oryza sativa
Method in brief: as §1

sugar beet = test: Test B pre/postemergence sugar beet; type: in vivo, Beta vulgaris; settings: for Sugarbeets plant response rating (0 to 10 scale): 0 is no effect
Method in brief: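 Test chemicals in a non-phytotoxic solvent mixture with surfactant were sprayed preemergence onto planted seeds and postemergence onto plants 2 to 18 cm tall (1- to 4-leaf stage). After twelve to sixteen days in a greenhouse, injury was visually rated against untreated controls from 0 (no effect) to 10 (complete control).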

[1] = Postemergence (flood test species), Rate 125 g/ha, scale of 0 to 10 where 0 is no effect and 10 is complete control
[2] = Postemergence, Rate 62 g/ha, scale 0 to 10, 0 is no effect, 10 is complete control
[3] = Rate 250 g/ha, headed Pre-emergence (flood test species), scale 0 to 10 (0 no effect, 10 complete control)
[4] = Rate 500 g/ha, headed Pre-emergence (flood test species), scale 0 to 10 (0 no effect, 10 complete control)
[5] = Rate 500 g/ha, listed under Postemergence (flood test species), scale 0 to 10, 0 no effect, 10 complete control
[6] = Rate 1000 g/ha, Pre-emergence (as headed), scale 0 to 10
[7] = Rate 2000 g/ha, Pre-emergence (as headed), scale 0 to 10, 0 no effect, 10 complete control
[8] = flood test, listed under Postemergence, Rate 250 g/ha, scale 0 to 10, 0 no effect, 10 complete control
[9] = Pre-emergence, Rate 1000 g/ha, scale 0 to 10 (0 no effect, 10 complete control)
[10] = Rate 62 g/ha, Postemergence section, flood test species, scale of 0 to 10 where 0 is no effect and 10 is complete control
[11] = Rate 250 g/ha, Postemergence (flood test), scale 0 to 10, 0 is no effect, 10 is complete control
[12] = Rate 2000 g/ha, Pre-emergence (as headed), scale 0 to 10
[13] = Postemergence, Rate 125 g/ha, scale of 0 to 10 where 0 is no effect and 10 is complete control
[14] = Preemergence, Rate 62 g/ha, scale 0 to 10 (0 no effect, 10 complete control)
[15] = Preemergence, Rate 125 g/ha, 10 is complete control
[16] = Preemergence, Rate 500 g/ha, scale 0 to 10 (0 no effect, 10 complete control)
[17] = Rate 62 g/ha, Postemergence, scale of 0 to 10 where 0 is no effect and 10 is complete control
[18] = Rate 250 g/ha, Postemergence, scale 0 to 10, 0 is no effect, 10 is complete control
[19] = Rate 500 g/ha, Postemergence, scale 0 to 10, 0 no effect, 10 complete control
[20] = Preemergence, Rate 250 g/ha, scale 0 to 10, 0 is no effect, 10 is complete control
[21] = Rate 500 g/ha, listed under Postemergence (flood test species), scale 0 to 10
[22] = Rate 500 g/ha, Postemergence, scale 0 to 10
[23] = Rate 62 g/ha, headed Pre-emergence (flood test species), scale 0 to 10 (0 no effect, 10 complete control)
[24] = Rate 125 g/ha, Pre-emergence, flood test species, scale 0 to 10 where 0 is no effect and 10 is complete control
[25] = Rate 250 g/ha, Pre-emergence, flood-test species, scale 0 to 10, 0 is no effect, 10 is complete control
[26] = Rate 500 g/ha, Pre-emergence, flood test species, scale 0 to 10 (0 no effect, 10 complete control)
[27] = Preemergence, Rate 62 g/ha, scale of 0 to 10 where 0 is no effect and 10 is complete control
[28] = Rate 125 g/ha, Postemergence, scale 0 to 10

SMILES: Cc1nn(C)c(Cl)c1-n1c(=O)on(C(=O)N(c2ccccc2)C(C)C)c1=O [Compound 121]
- Barnyardgrass plant response rating (bamyardgrass; [1]): 0
- Barnyardgrass plant response rating (bamyardgrass; [2]): 0
- Barnyardgrass plant response rating (bamyardgrass; [3]): 0
- Plant response rating, Barnyardgrass (bamyardgrass; [4]): 8
- Barnyardgrass plant response rating (bamyardgrass; [5]): 6
- Barnyardgrass plant response rating (bamyardgrass; [6]): 9
- Barnyardgrass plant response rating (bamyardgrass; [7]): 9
- Barnyardgrass plant response rating (bamyardgrass; [8]): 0
- S. Flatsedge plant response rating (smallflower flatsedge; [1]): 5
- S. Flatsedge plant response rating (smallflower flatsedge; [9]): 9
- S. Flatsedge plant response rating (smallflower flatsedge; [10]): 3
- Plant response rating, S. Flatsedge (smallflower flatsedge; [11]): 5
- S. Flatsedge plant response rating (smallflower flatsedge; [3]): 0
- Plant response rating, S. Flatsedge (smallflower flatsedge; [4]): 3
- S. Flatsedge plant response rating (smallflower flatsedge; [5]): 6
- S. Flatsedge plant response rating (smallflower flatsedge; [12]): 9
- Ducksalad plant response rating (duck salad; [1]): 0
- Ducksalad plant response rating (duck salad; [10]): 0
- Ducksalad plant response rating (duck salad; [3]): 0
- Plant response rating, Ducksalad (duck salad; [4]): 0
- Ducksalad plant response rating (duck salad; [5]): 0
- Ducksalad plant response rating (duck salad; [6]): 0
- Ducksalad plant response rating (duck salad; [12]): 0
- Ducksalad plant response rating (duck salad; [8]): 0
- Rice plant response rating (rice; [1]): 0
- Rice plant response rating (rice; [10]): 0
- Plant response rating, Rice (rice; [11]): 0
- Rice plant response rating (rice; [3]): 0
- Plant response rating, Rice (rice; [4]): 0
- Rice plant response rating (rice; [5]): 0
- Rice plant response rating (rice; [6]): 3
- Rice plant response rating (rice; [12]): 5
- Sugarbeets plant response rating (sugar beet; [13]): 0
- Sugarbeets plant response rating (sugar beet; [14]): 0
- Sugarbeets plant response rating (0 to 10 scale) (sugar beet; [15]): 3
- Plant response rating, Sugarbeets (sugar beet; Preemergence, Rate 250 g/ha, scale of 0 to 10 where 0 is no effect and 10 is complete control): 7
- Sugarbeets plant response rating (sugar beet; [16]): 7
- Sugarbeets plant response rating (sugar beet; [17]): 0
- Plant response rating, Sugarbeets (sugar beet; [18]): 4
- Sugarbeets plant response rating (sugar beet; [19]): 4

SMILES: CC(C)N(C(=O)n1oc(=O)n(-c2ccnn2C)c1=O)c1ccc(F)cc1 [Compound 124]
- Barnyardgrass plant response rating (bamyardgrass; [1]): 0
- Barnyardgrass plant response rating (bamyardgrass; [2]): 0
- Plant response rating, Barnyardgrass (bamyardgrass; [11]): 0
- Barnyardgrass plant response rating (bamyardgrass; [3]): 0
- Plant response rating, Barnyardgrass (bamyardgrass; [4]): 0
- Barnyardgrass plant response rating (bamyardgrass; [5]): 0
- Barnyardgrass plant response rating (bamyardgrass; [6]): 0
- Barnyardgrass plant response rating (bamyardgrass; [7]): 0
- S. Flatsedge plant response rating (smallflower flatsedge; [1]): 0
- S. Flatsedge plant response rating (smallflower flatsedge; [9]): 0
- S. Flatsedge plant response rating (smallflower flatsedge; [10]): 0
- Plant response rating, S. Flatsedge (smallflower flatsedge; [11]): 0
- S. Flatsedge plant response rating (smallflower flatsedge; [3]): 0
- Plant response rating, S. Flatsedge (smallflower flatsedge; [4]): 0
- S. Flatsedge plant response rating (smallflower flatsedge; [5]): 0
- S. Flatsedge plant response rating (smallflower flatsedge; [12]): 0
- Ducksalad plant response rating (duck salad; [1]): 0
- Ducksalad plant response rating (duck salad; [10]): 0
- Plant response rating, Ducksalad (duck salad; [11]): 0
- Ducksalad plant response rating (duck salad; [3]): 0
- Plant response rating, Ducksalad (duck salad; [4]): 0
- Ducksalad plant response rating (duck salad; [5]): 0
- Ducksalad plant response rating (duck salad; [6]): 0
- Ducksalad plant response rating (duck salad; [12]): 0
- Rice plant response rating (rice; [1]): 0
- Rice plant response rating (rice; [10]): 0
- Plant response rating, Rice (rice; [11]): 0
- Rice plant response rating (rice; [3]): 0
- Plant response rating, Rice (rice; [4]): 0
- Rice plant response rating (rice; [5]): 0
- Rice plant response rating (rice; [6]): 0
- Rice plant response rating (rice; [12]): 0
- Sugarbeets plant response rating (sugar beet; [13]): 0
- Sugarbeets plant response rating (sugar beet; [14]): 0
- Sugarbeets plant response rating (0 to 10 scale) (sugar beet; [15]): 0
- Sugarbeets plant response rating (sugar beet; [20]): 0
- Sugarbeets plant response rating (sugar beet; [16]): 0
- Sugarbeets plant response rating (sugar beet; [17]): 0
- Plant response rating, Sugarbeets (sugar beet; [18]): 0
- Sugarbeets plant response rating (sugar beet; [19]): 0

SMILES: CC(C)c1noc(C(C)C)c1-n1c(=O)on(C(=O)N(c2ccc(F)cc2)C(C)C)c1=O [Compound 135]
- Barnyardgrass plant response rating (bamyardgrass; [1]): 0
- Barnyardgrass plant response rating (bamyardgrass; [10]): 0
- Plant response rating, Barnyardgrass (bamyardgrass; [11]): 0
- Barnyardgrass plant response rating (bamyardgrass; [5]): 0
- S. Flatsedge plant response rating (smallflower flatsedge; [1]): 0
- S. Flatsedge plant response rating (smallflower flatsedge; [10]): 0
- Plant response rating, S. Flatsedge (smallflower flatsedge; [11]): 0
- S. Flatsedge plant response rating (smallflower flatsedge; [21]): 0
- Ducksalad plant response rating (duck salad; [1]): 0
- Ducksalad plant response rating (duck salad; [10]): 0
- Plant response rating, Ducksalad (duck salad; [11]): 0
- Ducksalad plant response rating (duck salad; [21]): 0
- Rice plant response rating (rice; [1]): 0
- Rice plant response rating (rice; [10]): 0
- Plant response rating, Rice (rice; [11]): 0
- Rice plant response rating (rice; [21]): 0
- Sugarbeets plant response rating (sugar beet; [13]): 0
- Sugarbeets plant response rating (sugar beet; [14]): 0
- Sugarbeets plant response rating (0 to 10 scale) (sugar beet; [15]): 0
- Sugarbeets plant response rating (sugar beet; [20]): 0
- Sugarbeets plant response rating (sugar beet; [16]): 0
- Sugarbeets plant response rating (sugar beet; [17]): 0
- Plant response rating, Sugarbeets (sugar beet; [18]): 0
- Sugarbeets plant response rating (sugar beet; [22]): 0

SMILES: CC(C)N(C(=O)n1oc(=O)n(Cc2ccccc2Cl)c1=O)c1ccc(F)cc1 [Compound 140]
- Barnyardgrass plant response rating (bamyardgrass; [1]): 0
- Barnyardgrass plant response rating (bamyardgrass; [10]): 0
- Plant response rating, Barnyardgrass (bamyardgrass; [11]): 2
- Barnyardgrass plant response rating (bamyardgrass; [5]): 8
- S. Flatsedge plant response rating (smallflower flatsedge; [1]): 0
- S. Flatsedge plant response rating (smallflower flatsedge; [10]): 0
- Plant response rating, S. Flatsedge (smallflower flatsedge; [11]): 0
- S. Flatsedge plant response rating (smallflower flatsedge; [21]): 0
- Ducksalad plant response rating (duck salad; [1]): 0
- Ducksalad plant response rating (duck salad; [10]): 0
- Plant response rating, Ducksalad (duck salad; [11]): 0
- Ducksalad plant response rating (duck salad; [21]): 0
- Rice plant response rating (rice; [1]): 0
- Rice plant response rating (rice; [10]): 0
- Plant response rating, Rice (rice; [11]): 2
- Rice plant response rating (rice; [21]): 4
- Sugarbeets plant response rating (sugar beet; [13]): 0
- Sugarbeets plant response rating (sugar beet; [14]): 0
- Sugarbeets plant response rating (0 to 10 scale) (sugar beet; [15]): 0
- Sugarbeets plant response rating (sugar beet; [20]): 0
- Sugarbeets plant response rating (sugar beet; [16]): 1
- Sugarbeets plant response rating (sugar beet; [17]): 0
- Plant response rating, Sugarbeets (sugar beet; [18]): 0
- Sugarbeets plant response rating (sugar beet; [22]): 0

SMILES: COc1nc(OC)nc(N(C(=O)n2oc(=O)n(-c3ccccc3C)c2=O)C(C)C)n1 [Compound 181]
- Barnyardgrass plant response rating (bamyardgrass; [23]): 0
- Barnyardgrass plant response rating (bamyardgrass; [24]): 0
- Barnyardgrass plant response rating (bamyardgrass; [25]): 0
- Plant response rating, Barnyardgrass (bamyardgrass; [4]): 0
- S. Flatsedge plant response rating (smallflower flatsedge; [23]): 0
- S. Flatsedge plant response rating (smallflower flatsedge; [24]): 0
- S. Flatsedge plant response rating (smallflower flatsedge; [25]): 0
- S. Flatsedge plant response rating (smallflower flatsedge; [26]): 0
- Ducksalad plant response rating (duck salad; [23]): 0
- Ducksalad plant response rating (duck salad; [24]): 0
- Ducksalad plant response rating (duck salad; [25]): 0
- Plant response rating, Ducksalad (duck salad; [4]): 0
- Rice plant response rating (rice; [23]): 0
- Rice plant response rating (rice; [24]): 0
- Rice plant response rating (rice; [25]): 0
- Plant response rating, Rice (rice; [4]): 0
- Sugarbeets plant response rating (sugar beet; [27]): 0
- Sugarbeets plant response rating (0 to 10 scale) (sugar beet; [15]): 0
- Sugarbeets plant response rating (sugar beet; [20]): 0
- Sugarbeets plant response rating (sugar beet; [16]): 0
- Sugarbeets plant response rating (sugar beet; [17]): 0
- Sugarbeets plant response rating (sugar beet; [28]): 0
- Plant response rating (0 to 10; 0 is no effect, 10 is complete control), Sugarbeets (sugar beet; Rate 250 g/ha, Postemergence): 0
- Sugarbeets plant response rating (sugar beet; [22]): 0

SMILES: Cc1ccccc1-n1c(=O)on(C(=O)N(c2ccc(Cl)cc2Cl)C(C)C)c1=O [Compound 185]
- Barnyardgrass plant response rating (bamyardgrass; [23]): 0
- Barnyardgrass plant response rating (bamyardgrass; [24]): 0
- Barnyardgrass plant response rating (bamyardgrass; [25]): 0
- Plant response rating, Barnyardgrass (bamyardgrass; [4]): 0
- S. Flatsedge plant response rating (smallflower flatsedge; [23]): 0
- S. Flatsedge plant response rating (smallflower flatsedge; [24]): 0
- S. Flatsedge plant response rating (smallflower flatsedge; [25]): 0
- S. Flatsedge plant response rating (smallflower flatsedge; [26]): 0
- Ducksalad plant response rating (duck salad; [23]): 0
- Ducksalad plant response rating (duck salad; [24]): 0
- Ducksalad plant response rating (duck salad; [25]): 0
- Plant response rating, Ducksalad (duck salad; [4]): 0
- Rice plant response rating (rice; [23]): 0
- Rice plant response rating (rice; [24]): 0
- Rice plant response rating (rice; [25]): 0
- Plant response rating, Rice (rice; [4]): 0
- Sugarbeets plant response rating (sugar beet; [27]): 0
- Sugarbeets plant response rating (0 to 10 scale) (sugar beet; [15]): 0
- Sugarbeets plant response rating (sugar beet; [20]): 0
- Sugarbeets plant response rating (sugar beet; [16]): 0
- Sugarbeets plant response rating (sugar beet; [17]): 0
- Sugarbeets plant response rating (sugar beet; [28]): 0
- Plant response rating (0 to 10; 0 is no effect, 10 is complete control), Sugarbeets (sugar beet; Rate 250 g/ha, Postemergence): 0
- Sugarbeets plant response rating (sugar beet; [22]): 0
